What was measured:
[1] = test system: Proteus Mirabilis; experiment: Promoting wave test (bio-wave model); type: cell-based; details: final concentration of 0.5% on LB plate, 37° C.
Excerpt: I. Promoting Wave Test of the Compound of Formula (I) 1.

[2] = in vivo
Excerpt: • 1. acute toxicity test: including tests of administrating medicine by oral, Intravenous injection and maximum limit amount for administration; • 2. Ames test; • 3. micronucleus test of bone marrow cell of mouse; • 4. abnormal sexual test for the sperm of mouse; • 5. abnormal aberrance test for the chromosin of mouse's testis; • 6. chronic lethal test; • 7. subchronic toxicity (feed for 90 days) test; • 8. traditional aberrance-inducing test;

CC(=O)N[C@@H]1[C@@H](O)[C@H](O)[C@@H](CO)O[C@H]1O [compound of formula (I), N-acetyl-D-glucosamine]
promoting wave function (concentric ring pattern compared with control) [1]: there were also many fine waves on each ring emerged
acute test dosage relative to the injection dosage for human being [2]: 300 times
dosage at which acute toxicosis reaction had not appeared [2]: more than 2 g/kg

— patent publication US7037904B2, “Use of N-acetyl-D-glucosamine in the manufacture of pharmaceutical useful for suppressing side-effect of radiotherapy and chemotherapy” (Third Military Medical University, Chinese People's …, priority 2001, dated 2006)
